In patent US20130303509A1, “NAMPT INHIBITORS” (AbbVie Inc., priority 2012, published 2013):

Test system: not given
Experiment: not given
Conditions: model of T-cell mediated autoimmune disorders; cited from earlier work

Compound	manifestations of experimental autoimmune encephalomyelitis
O=C(/C=C/c1cccnc1)NCCCCC1CCN(C(=O)c2ccccc2)CC1 [FK866]	ameliorated the manifestations

Test system: PC3 cells
Experiment: NAMPT Cell Proliferation Assay
Type: cell-based
Conditions: Homo sapiens, PC-3, 120 h, 5 days incubation, cell viability by Cell Titer Glo
In short: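 Five-day CellTiter-Glo viability readout in PC3 cells grown in RPMI/10% heat-inactivated FBS. Compounds added after overnight attachment as a 10-fold dilution series, […]. Percent inhibition fitted to sigmoidal dose-response to derive IC50.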

Compound	IC50 [nM]
O=C(Nc1ccc(C2CCN(C(=O)Cc3ccc(Cl)cc3Cl)CC2)cc1)[C@H]1CCN(c2cccnn2)C1 [Example 651, (3S)-N-(4-{1-[(2,4-dichlorophenyl)acetyl]piperidin-4-yl}phenyl)-1-(pyridazin-3-yl)pyrrolidine-3-carboxamide]	27.6
O=C(Nc1ccc(C2CCN(C(=O)c3ccccc3)CC2)cc1F)C1CN(c2cccnn2)C1 [Example 829, N-[4-(1-benzoylpiperidin-4-yl)-2-fluorophenyl]-1-(pyridazin-3-yl)azetidine-3-carboxamide]	2.95
O=C(Nc1ccc(O[C@@H]2CCN(C(=O)Cc3ccc(OC(F)(F)F)cc3)C2)cc1)C1CN(c2ccnnc2)C1 [Example 447, 1-(pyridazin-4-yl)-N-(4-{[(3R)-1-{[4-(trifluoromethoxy)phenyl]acetyl}pyrrolidin-3-yl]oxy}phenyl)azetidine-3-carboxamide]	903
Cc1ccccc1C(=O)N1CCC(c2ccc(NC(=O)[C@H]3CCN(c4cccnn4)C3)cc2)CC1 [Example 652, (3S)-N-{4-[1-(2-methylbenzoyl)piperidin-4-yl]phenyl}-1-(pyridazin-3-yl)pyrrolidine-3-carboxamide]	6.14
O=C(Nc1ccc(C2CCN(C(=O)c3ccsc3)CC2)cc1)C1CN(c2ccnnc2)C1 [Example 530, 1-(pyridazin-4-yl)-N-{4-[1-(thiophen-3-ylcarbonyl)piperidin-4-yl]phenyl}azetidine-3-carboxamide]	2.02
O=C(Nc1ccc(O[C@@H]2CCN(C(=O)c3cccc(OC(F)(F)F)c3)C2)cc1)C1CN(c2cccnn2)C1 [Example 504, 1-(pyridazin-3-yl)-N-[4-({(3R)-1-[3-(trifluoromethoxy)benzoyl]pyrrolidin-3-yl}oxy)phenyl]azetidine-3-carboxamide]	7.75

Continued, values first:

IC50 [nM]	Compound
6.14	Cc1ccsc1C(=O)N1CCC(Oc2ccc(NC(=O)C3CN(c4cccnc4)C3)cc2)CC1 [Example 59, N-[4-({1-[(3-methylthiophen-2-yl)carbonyl]piperidin-4-yl}oxy)phenyl]-1-(pyridin-3-yl)azetidine-3-carboxamide]
853	O=C(Nc1ccc(C2CCN(C(=O)c3ccccc3F)CC2)cc1)C1CCN(c2cccnn2)CC1 [Example 627, N-{4-[1-(2-fluorobenzoyl)piperidin-4-yl]phenyl}-1-(pyridazin-3-yl)piperidine-4-carboxamide]
15.7	O=C(Nc1ccc(OC2CCN(C(=O)Cc3ccc(OC(F)(F)F)cc3)CC2)cc1)C1CN(c2cccnn2)C1 [Example 238, 1-(pyridazin-3-yl)-N-{4-[(1-{[4-(trifluoromethoxy)phenyl]acetyl}piperidin-4-yl)oxy]phenyl}azetidine-3-carboxamide]
2.73	CCC(C)CC(=O)N1CCC(c2ccc(NC(=O)[C@H]3CCN(c4cccnn4)C3)cc2)CC1 (stereo partly drawn) [Example 682, (3S)-N-{4-[1-(3-methylpentanoyl)piperidin-4-yl]phenyl}-1-(pyridazin-3-yl)pyrrolidine-3-carboxamide]
> 10000	CC(C)(C)OC(=O)N1CCC(Oc2ccc(C(=O)N[C@@H]3CCN(c4cccnc4)C3)cc2)CC1 [Example 28, tert-butyl 4-(4-{[(3R)-1-(pyridin-3-yl)pyrrolidin-3-yl]carbamoyl}phenoxy)piperidine-1-carboxylate]
11.6	CCCCCCC(=O)N1CCC(c2ccc(NC(=O)[C@H]3CCN(c4cccnn4)C3)cc2)CC1 [Example 673, (3S)-N-[4-(1-heptanoylpiperidin-4-yl)phenyl]-1-(pyridazin-3-yl)pyrrolidine-3-carboxamide]
7.7	O=C(Nc1ccc(C2CCN(C(=O)Cc3ccc(F)cc3)CC2)cc1)C1CN(c2cccnn2)C1 [Example 368, N-(4-{1-[(4-fluorophenyl)acetyl]piperidin-4-yl}phenyl)-1-(pyridazin-3-yl)azetidine-3-carboxamide]
87.4	O=C(Nc1ccc(S(=O)(=O)C2CCN(C(=O)c3cccc(F)c3)CC2)cc1)C1CN(c2cccnn2)C1 [Example 583, N-(4-{[1-(3-fluorobenzoyl)piperidin-4-yl]sulfonyl}phenyl)-1-(pyridazin-3-yl)azetidine-3-carboxamide]
9.28	O=C(Nc1ccc(OC2CCN(C(=O)c3cc(F)cc(F)c3)CC2)cc1)C1CN(c2cccnn2)C1 [Example 243, N-(4-{[1-(3,5-difluorobenzoyl)piperidin-4-yl]oxy}phenyl)-1-(pyridazin-3-yl)azetidine-3-carboxamide]
3.32	O=C(Nc1ccc(C2CCN(C(=O)c3cc(F)cc(F)c3)CC2)cc1)C1CN(c2ccnnc2)C1 [Example 552, N-{4-[1-(3,5-difluorobenzoyl)piperidin-4-yl]phenyl}-1-(pyridazin-4-yl)azetidine-3-carboxamide]

Test system: not given
Experiment: not given
Conditions: collagen induced arthritis; cited from earlier work

Compound	efficacy in animal models of arthritis
O=C(/C=C/c1cccnc1)NCCCCC1CCN(C(=O)c2ccccc2)CC1 [FK866]	efficacious

Test system: activated T cells
Experiment: not given
Conditions: cited from earlier work

Compound	proliferation and apoptosis of activated T cells
O=C(/C=C/c1cccnc1)NCCCCC1CCN(C(=O)c2ccccc2)CC1 [FK866]	selectively block proliferation and induce apoptosis
